Reference: US10183021B2, “sGC stimulators” (Ironwood Pharmaceuticals, Inc., priority 2013, dated 2019)

Legend:
[1] = molecular target: T1, soluble guanylate cyclase (sGC) (Homo sapiens (Human), UniProt Q02108+Q02153); assay: sGC-HEK-cGMP assay with SNP incubation, LC/MS detection (Example 2A); format: cell-based; conditions: HEK293 cells, 10 μM SNP, LC/MS detection; for Emax: 100% = BAY 41-2272 at 10 μM, read-out: HEK assay Emax - unconstrained (%)
Method in brief: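 HEK293 cells with endogenous sGC were pretreated 15 min at 37 °C with 0.5 mM IBMX, then exposed 10 min at 37 °C to compound (added from 0.0001–30 μM solutions) plus SNP (from 10 μM solution). After 0.1 M HCl lysis, cGMP was quantified by LC/MS against a standard curve.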

[2] = molecular target: T1, soluble guanylate cyclase (sGC); assay: sGC-HEK-cGMP assay, new protocol with DETA-NONOate, LC/MS detection (Example 2C); format: cell-based; conditions: read-out: Absolute EC50 (uM) - binned
[3] = top of curve not fitted to 100%, read-out: HEK assay EC50 - unconstrained
[4] = top of curve fitted to 100%, read-out: HEK assay EC50 - constrained

T1 sequence (Q02153 whole entry): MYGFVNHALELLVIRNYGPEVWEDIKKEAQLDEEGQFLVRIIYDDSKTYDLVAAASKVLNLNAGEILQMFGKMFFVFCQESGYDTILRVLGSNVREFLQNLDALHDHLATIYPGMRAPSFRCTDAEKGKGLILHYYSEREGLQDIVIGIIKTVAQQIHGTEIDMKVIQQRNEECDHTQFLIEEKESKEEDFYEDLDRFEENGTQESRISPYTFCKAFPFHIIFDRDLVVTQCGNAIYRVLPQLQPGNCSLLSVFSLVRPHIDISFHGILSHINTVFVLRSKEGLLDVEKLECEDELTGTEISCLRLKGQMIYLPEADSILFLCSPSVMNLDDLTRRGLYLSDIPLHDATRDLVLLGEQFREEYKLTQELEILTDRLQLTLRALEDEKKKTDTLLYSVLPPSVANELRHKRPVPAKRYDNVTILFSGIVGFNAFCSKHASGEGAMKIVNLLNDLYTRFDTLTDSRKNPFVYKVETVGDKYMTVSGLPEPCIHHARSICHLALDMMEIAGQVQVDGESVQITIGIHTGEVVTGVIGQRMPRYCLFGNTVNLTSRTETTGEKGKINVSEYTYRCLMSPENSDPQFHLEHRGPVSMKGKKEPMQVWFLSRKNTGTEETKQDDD
T1 sequence (Q02108 whole entry): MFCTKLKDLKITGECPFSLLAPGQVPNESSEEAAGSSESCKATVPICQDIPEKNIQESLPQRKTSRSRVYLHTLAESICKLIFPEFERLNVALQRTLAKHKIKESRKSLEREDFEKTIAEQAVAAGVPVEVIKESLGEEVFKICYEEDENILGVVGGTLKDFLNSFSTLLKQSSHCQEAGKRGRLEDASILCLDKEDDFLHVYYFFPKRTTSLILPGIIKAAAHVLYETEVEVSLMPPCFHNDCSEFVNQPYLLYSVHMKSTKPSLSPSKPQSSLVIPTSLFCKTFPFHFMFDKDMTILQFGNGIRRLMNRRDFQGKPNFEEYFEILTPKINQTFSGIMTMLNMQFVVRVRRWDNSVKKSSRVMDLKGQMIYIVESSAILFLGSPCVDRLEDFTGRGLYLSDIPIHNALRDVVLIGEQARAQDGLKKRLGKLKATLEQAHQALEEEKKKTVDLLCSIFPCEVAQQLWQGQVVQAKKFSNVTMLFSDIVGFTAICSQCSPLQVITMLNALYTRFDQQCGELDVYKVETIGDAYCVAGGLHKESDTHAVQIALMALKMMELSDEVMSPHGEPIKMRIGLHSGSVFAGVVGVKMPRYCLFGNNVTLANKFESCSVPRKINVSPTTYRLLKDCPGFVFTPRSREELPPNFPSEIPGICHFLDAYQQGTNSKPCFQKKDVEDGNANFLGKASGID

| Compound | Emax [1] | EC50 [1, 3] | EC50 [2] | EC50 [1, 4] |
| --- | --- | --- | --- | --- |
| O=C(O)[C@H]1C[C@@H](C(F)(F)F)CCN1c1nc(-c2cc(-c3ccon3)n(Cc3ccccc3F)n2)ncc1F (racemic) [Compound I-452] | 80 to 100% | 100 to 500 nM | < 0.1 µM | – |
| O=C(O)[C@H]1C[C@H](C(F)(F)F)CCN1c1nc(-c2cc(-c3ccon3)n(Cc3ccccc3F)n2)ncc1F (racemic) [Compound I-453] | 0 to 10% | 1000 to 5000 nM | 0.101 to 1 µM | – |
| CC1CCCN1c1nc(-c2cc(-c3ccon3)n(Cc3ccccc3F)n2)ncc1F (centres unmarked) [Compound I-11] | – | – | 0.101 to 1 µM | 500 to 1000 nM |
| O=[N+]([O-])c1cnc(-c2cc(-c3ccon3)n(Cc3ccccc3F)n2)nc1N1CCOCC1 [Compound I-14] | – | – | > 1 µM | > 10000 nM |
| COC1CCCN(c2nc(-c3cc(-c4ccon4)n(Cc4ccccc4F)n3)ncc2F)C1 (centres unmarked) [Compound I-19] | – | – | < 0.1 µM | 1000 to 5000 nM |
| Fc1ccccc1Cn1nc(-c2nccc(N3CCOCC3)n2)cc1-c1ccon1 [Compound I-24] | 40 to 60% | 100 to 500 nM | < 0.1 µM | – |
| CC(C)(C)OC(=O)NC1CCN(c2nc(-c3cc(-c4ccon4)n(Cc4ccccc4F)n3)ncc2F)C1 (centres unmarked) [Compound I-35] | 40 to 60% | 500 to 1000 nM | 0.101 to 1 µM | – |
| Fc1ccccc1Cn1nc(-c2ncc(F)c(NC3CCCNC3)n2)cc1-c1ccon1 (centres unmarked) [Compound I-39] | 60 to 80% | 5000 to 10000 nM | 0.101 to 1 µM | – |
| O=C(O)C1CN(c2nc(-c3cc(-c4ccon4)n(Cc4ccccc4F)n3)ncc2F)C1 [Compound I-53] | – | – | 0.101 to 1 µM | 1000 to 5000 nM |
| CC1C(=O)NCCN1c1nc(-c2cc(-c3ccon3)n(Cc3ccccc3F)n2)ncc1F (centres unmarked) [Compound I-54] | – | – | < 0.1 µM | 100 to 500 nM |
| O=C(O)C1CCN1c1nc(-c2cc(-c3ccon3)n(Cc3ccccc3F)n2)ncc1F (centres unmarked) [Compound I-55] | – | – | 0.101 to 1 µM | 1000 to 5000 nM |
| O=C1CN(c2nc(-c3cc(-c4ccon4)n(Cc4ccccc4F)n3)ncc2F)CCN1 [Compound I-59] | – | – | 0.101 to 1 µM | > 10000 nM |
| CC(C)[C@H](Nc1nc(-c2cc(-c3ccon3)n(Cc3ccccc3F)n2)ncc1F)C(=O)O [Compound I-69, (S)-2-((5-fluoro-2-(1-(2-fluorobenzyl)-5-(isoxazol-3-yl)-1H-pyrazol-3-yl)pyrimidin-4-yl)amino)-3-methylbutanoic acid] | 80 to 100% | 500 to 1000 nM | 0.101 to 1 µM | 100 to 500 nM |
| O=C(O)[C@H](Cc1cc2ccccc2[nH]1)Nc1nc(-c2cc(-c3ccon3)n(Cc3ccccc3F)n2)ncc1F [Compound I-81] | – | – | > 1 µM | > 10000 nM |
| O=C(O)C1(Nc2nc(-c3cc(-c4ccon4)n(Cc4ccccc4F)n3)ncc2F)CC1 [Compound I-85] | – | – | > 1 µM | > 10000 nM |
| CC(C)C[C@H](Nc1nc(-c2cc(-c3ccon3)n(Cc3ccccc3F)n2)ncc1F)C(=O)O [Compound I-88] | 60 to 80% | 1000 to 5000 nM | 0.101 to 1 µM | – |
| O=C(O)[C@@H]1Cc2ccccc2N1c1nc(-c2cc(-c3ccon3)n(Cc3ccccc3F)n2)ncc1F [Compound I-90] | 40 to 60% | 5000 to 10000 nM | > 1 µM | – |
| CC(C)(C)OC(=O)N1CCN(c2nc(-c3cc(-c4ccon4)n(Cc4ccccc4F)n3)ncc2F)C(C(=O)O)C1 (centres unmarked) [Compound I-101] | – | – | 0.101 to 1 µM | 5000 to 10000 nM |
| O=C(O)c1cccn1-c1nc(-c2cc(-c3ccon3)n(Cc3ccccc3F)n2)ncc1F [Compound I-104] | 20 to 40% | 1000 to 5000 nM | > 1 µM | – |
| O=C(O)[C@@H](Cc1cc2ccccc2[nH]1)Nc1nc(-c2cc(-c3ccon3)n(Cc3ccccc3F)n2)ncc1F [Compound I-108] | – | – | 0.101 to 1 µM | 5000 to 10000 nM |
| Fc1ccccc1Cn1nc(-c2ncc(F)c(N3CCc4ccccc4C3)n2)cc1-c1ccon1 [Compound I-111] | – | – | < 0.1 µM | > 10000 nM |
| O=C(O)[C@@]1(Nc2nc(-c3cc(-c4ccon4)n(Cc4ccccc4F)n3)ncc2F)CC2CC[C@H]1C2 [Compound I-114] | 40 to 60% | 1000 to 5000 nM | > 1 µM | – |
| COc1ccc2c(c1)CCN(c1nc(-c3cc(-c4ccon4)n(Cc4ccccc4F)n3)ncc1F)C2C(=O)O (centres unmarked) [Compound I-126] | – | – | < 0.1 µM | 500 to 1000 nM |
| O=C(O)C1c2ccc(O)cc2CCN1c1nc(-c2cc(-c3ccon3)n(Cc3ccccc3F)n2)ncc1F (centres unmarked) [Compound I-127] | – | – | > 1 µM | > 10000 nM |
| O=C(O)C1(CNc2nc(-c3cc(-c4ccon4)n(Cc4ccccc4F)n3)ncc2F)CCCC1 [Compound I-129] | – | – | < 0.1 µM | 100 to 500 nM |
| O=C(O)C1CNCCN1c1nc(-c2cc(-c3ccon3)n(Cc3ccccc3F)n2)ncc1F (centres unmarked) [Compound I-133] | – | – | > 1 µM | > 10000 nM |
| COC(=O)N1CCN(c2nc(-c3cc(-c4ccon4)n(Cc4ccccc4F)n3)ncc2F)C(C(=O)O)C1 (centres unmarked) [Compound I-135] | – | – | > 1 µM | > 10000 nM |
| O=C(O)C1(Nc2nc(-c3cc(-c4ccon4)n(Cc4ccccc4F)n3)ncc2F)CCCC1 [Compound I-138] | – | – | > 1 µM | 1000 to 5000 nM |

| Compound | Emax [1] | EC50 [1, 3] | EC50 [2] | EC50 [1, 4] |
| --- | --- | --- | --- | --- |
| O=C(O)C1CCc2ccccc2N1c1nc(-c2cc(-c3ccon3)n(Cc3ccccc3F)n2)ncc1F (centres unmarked) [Compound I-140] | 80 to 100% | 1000 to 5000 nM | 0.101 to 1 µM | – |
| O=C(O)C1c2ccccc2CN1c1nc(-c2cc(-c3ccon3)n(Cc3ccccc3F)n2)ncc1F (centres unmarked) [Compound I-149] | – | – | > 1 µM | > 10000 nM |
| O=C(O)[C@H](Cc1ccc(O)cc1)Nc1nc(-c2cc(-c3ccon3)n(Cc3ccccc3F)n2)ncc1F [Compound I-159] | – | – | > 1 µM | > 10000 nM |
| O=C(O)C1c2[nH]cnc2CCN1c1nc(-c2cc(-c3ccon3)n(Cc3ccccc3F)n2)ncc1F (centres unmarked) [Compound I-163] | – | – | > 1 µM | > 10000 nM |
| O=C(O)C1(F)CCN(c2nc(-c3cc(-c4ccon4)n(Cc4ccccc4F)n3)ncc2F)CC1 [Compound I-188] | – | – | 0.101 to 1 µM | 1000 to 5000 nM |
| CN(Cc1nn[nH]n1)c1nc(-c2cc(-c3ccon3)n(Cc3ccccc3F)n2)ncc1F [Compound I-191] | – | – | < 0.1 µM | > 10000 nM |
| CS(=O)(=O)C1CCN(c2nc(C3=NC(Cc4ccccc4F)C(c4ccon4)=C3)ncc2F)C1 (centres unmarked) [Compound I-192] | > 120% | 1 to 100 nM | < 0.1 µM | – |
| O=C(O)[C@@H]1CCCC[C@H]1Nc1nc(-c2cc(-c3ccon3)n(Cc3ccccc3F)n2)ncc1F [Compound I-198] | 40 to 60% | 1 to 100 nM | < 0.1 µM | – |
| CC(C)N(CC(=O)O)c1nc(-c2cc(-c3ccon3)n(Cc3ccccc3F)n2)ncc1F [Compound I-204] | – | – | 0.101 to 1 µM | > 10000 nM |
| O=C(O)C(F)(F)CNc1nc(-c2cc(-c3ccon3)n(Cc3ccccc3F)n2)ncc1F [Compound I-206] | – | – | < 0.1 µM | > 10000 nM |
| CCOC(=O)CN1CCCN1c1nc(-c2cc(-c3ccon3)n(Cc3ccccc3F)n2)ncc1F [Compound I-213] | > 120% | 500 to 1000 nM | < 0.1 µM | – |
| O=C(O)CCCNc1nc(-c2cc(-c3ccon3)n(Cc3ccccc3F)n2)ncc1F [Compound I-214] | > 120% | 100 to 500 nM | < 0.1 µM | – |
| CC(C)[C@H](C(=O)O)N(C)c1nc(-c2cc(-c3ccon3)n(Cc3ccccc3F)n2)ncc1F [Compound I-219] | 20 to 40% | > 10000 nM | < 0.1 µM | – |
| O=C(O)CC1CCN(c2nc(-c3cc(-c4ccon4)n(Cc4ccccc4F)n3)ncc2F)CC1 [Compound I-230] | 40 to 60% | > 10000 nM | < 0.1 µM | – |
| CC(C)[C@@H](C(=O)O)N(C)c1nc(-c2cc(-c3ncco3)n(Cc3ccccc3F)n2)ncc1F [Compound I-236] | 100 to 120% | 100 to 500 nM | < 0.1 µM | – |
| CN(c1nc(-c2cc(-c3ccon3)n(Cc3ccccc3F)n2)ncc1F)[C@H](C(=O)O)C1CC1 [Compound I-239] | 60 to 80% | 1 to 100 nM | < 0.1 µM | – |
| O=C(O)CC1(Nc2nc(-c3cc(-c4ccon4)n(Cc4ccccc4F)n3)ncc2F)CCOCC1 [Compound I-245] | – | – | 0.101 to 1 µM | 100 to 500 nM |
| CN(CC1(C(=O)O)CC1)c1nc(-c2cc(-c3ccon3)n(Cc3ccccc3F)n2)ncc1F [Compound I-250] | 80 to 100% | 1 to 100 nM | < 0.1 µM | – |
| CS(=O)(=O)CCC(Nc1nc(-c2cc(-c3ccon3)n(CCC(F)(F)F)n2)ncc1F)C(F)(F)F (centres unmarked) [Compound I-626] | – | – | > 1 µM | – |
| NC(=O)C(O)(CNc1ccnc(-c2cc(-c3ccon3)n(Cc3ccccc3F)n2)n1)C(F)(F)F (centres unmarked) [Compound I-627] | – | – | 0.101 to 1 µM | – |
| O=S1(=O)Cc2nc(-c3cc(-c4ccon4)n(Cc4ccccc4F)n3)nc(O)c2C1 [Compound I-628] | – | – | > 1 µM | – |
| CN(c1nc(-c2cc(-c3ccon3)n(Cc3ccccc3F)n2)ncc1F)S(C)(=O)=O [Compound I-629] | – | – | > 1 µM | – |
| COC(=O)N(C)c1cnc(-c2cc(-c3ccon3)n(Cc3ccccc3F)n2)nc1 [Compound I-630] | – | – | > 1 µM | – |
| Oc1n[nH]c2c1CN(c1nc(-c3cc(-c4ccon4)n(Cc4ccccc4F)n3)ncc1F)CC2 [Compound I-631] | – | – | < 0.1 µM | – |
| Nc1nc(-c2cc(-c3ccon3)n(Cc3ccccc3F)n2)nc2c1CS(=O)(=O)C2 [Compound I-632] | – | – | > 1 µM | – |
| OCC1Cn2c(nnc2C(F)(F)F)CN1c1nc(-c2cc(-c3ccon3)n(Cc3ccccc3F)n2)ncc1F (centres unmarked) [Compound I-633] | – | – | < 0.1 µM | – |
| CC(O)(CNc1nc(-c2cc(-c3ccon3)n(Cc3ccccc3F)n2)ncc1F)C(F)(F)F (centres unmarked) [Compound I-634] | – | – | < 0.1 µM | – |
